# Experimental data as given in publication PMC11859928, “Design, Synthesis, and Antiproliferative Activity of Novel Indole/1,2,4-Triazole Hybrids as Tubulin Polymerization Inhibitors” (Pharmaceuticals, 2025).
# Like-named read-outs stand apart in the source and are kept apart here.
# Assays:
# SR = assay: NCI five-dose assay; format: cell-based, human; details: Leukemia
# A549/ATCC = assay: NCI five-dose assay; format: cell-based, human; details: Non-small cell lung cancer
# HOP-92 = assay: NCI five-dose assay; format: cell-based, human; details: HOP-92, Non-small cell lung cancer
# NCI-H322M = assay: NCI five-dose assay; format: cell-based, human; details: Non-small cell lung cancer
# NCI-H522 = assay: NCI five-dose assay; format: cell-based, human; details: NCI-H522, Non-small cell lung cancer
# KM12 = assay: NCI five-dose assay; format: cell-based, human; details: KM12, Colon cancer
# SF-295 = assay: NCI five-dose assay; format: cell-based, human; details: SF-295, CNS cancer
# SNB-75 = assay: NCI five-dose assay; format: cell-based, human; details: SNB-75, CNS cancer
# SK-MEL-2 = assay: NCI five-dose assay; format: cell-based, human; details: SK-MEL-2, Melanoma
# SK-MEL-28 = assay: NCI five-dose assay; format: cell-based, human; details: SK-MEL-28, Melanoma
# SK-MEL-5 = assay: NCI five-dose assay; format: cell-based, human; details: SK-MEL-5, Melanoma
# UACC-62 = assay: NCI five-dose assay; format: cell-based, human; details: UACC-62, Melanoma
# IGROV1 = assay: NCI five-dose assay; format: cell-based, human; details: IGROV1, Ovarian cancer
# OVCAR-5 = assay: NCI five-dose assay; format: cell-based, human; details: OVCAR-5, Ovarian cancer
# A498 = assay: NCI five-dose assay; format: cell-based, human; details: A498, Renal cancer
# RXF393 = assay: NCI five-dose assay; format: cell-based, human; details: RXF393, Renal cancer
# TK-10 = assay: NCI five-dose assay; format: cell-based, human; details: TK-10, Renal cancer
# UO-31 = assay: NCI five-dose assay; format: cell-based, human; details: UO-31, Renal cancer
# MCF7 = assay: NCI five-dose assay; format: cell-based, human; details: MCF7, Breast cancer
# Melanoma subpanel = assay: NCI five-dose assay, subpanel mean; format: cell-based, human
# Ovarian cancer subpanel = assay: NCI five-dose assay, subpanel mean; format: cell-based, human
# Renal cancer subpanel = assay: NCI five-dose assay, subpanel mean; format: cell-based, human
# tubulin = target: T1, tubulin (Sus scrofa, UniProt P02550+P02554); assay: Tubulin polymerization inhibitory assay; format: biochemical
# T1 construct: purchased Cytoskeleton Inc., Denver, CO, USA
# Text: The substances’ effects on tubulin polymerization were examined using the Tubulin Polymerization Assay Kit (Cytoskeleton Inc., Denver, CO, USA) according to the supplier’s instructions, with details described in Appendix A..
# The activity of compounds on tubulin polymerization was investigated using the Tubulin Polymerization Assay Kit (Cytoskeleton Inc., Denver, CO, USA), which works via fluorescent reporter enhancement. […] Docetaxel and vincristine (Apoteket AB, Stockholm, Sweden) served as positive stabilizing and destabilizing controls. Both were used at a 3 µM concentration in PBS.
# [1] = Homo sapiens, 48 h, read-out: LC50 (the source's name)
# [2] = Homo sapiens, read-out: GI50 Conc. per Cell Lines
# T1 sequence (P02554 whole entry): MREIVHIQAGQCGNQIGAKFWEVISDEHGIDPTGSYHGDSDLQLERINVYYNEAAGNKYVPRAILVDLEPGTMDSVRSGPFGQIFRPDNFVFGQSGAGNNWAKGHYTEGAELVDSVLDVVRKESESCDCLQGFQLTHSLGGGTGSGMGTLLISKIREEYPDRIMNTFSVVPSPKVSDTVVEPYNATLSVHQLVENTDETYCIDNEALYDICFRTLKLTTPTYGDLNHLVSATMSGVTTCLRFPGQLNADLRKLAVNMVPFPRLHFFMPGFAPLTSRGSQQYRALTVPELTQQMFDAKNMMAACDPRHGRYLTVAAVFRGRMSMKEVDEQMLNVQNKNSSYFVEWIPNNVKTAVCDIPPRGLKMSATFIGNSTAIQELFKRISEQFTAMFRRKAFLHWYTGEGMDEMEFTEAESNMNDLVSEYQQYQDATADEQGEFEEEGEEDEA
# T1 sequence (P02550 whole entry): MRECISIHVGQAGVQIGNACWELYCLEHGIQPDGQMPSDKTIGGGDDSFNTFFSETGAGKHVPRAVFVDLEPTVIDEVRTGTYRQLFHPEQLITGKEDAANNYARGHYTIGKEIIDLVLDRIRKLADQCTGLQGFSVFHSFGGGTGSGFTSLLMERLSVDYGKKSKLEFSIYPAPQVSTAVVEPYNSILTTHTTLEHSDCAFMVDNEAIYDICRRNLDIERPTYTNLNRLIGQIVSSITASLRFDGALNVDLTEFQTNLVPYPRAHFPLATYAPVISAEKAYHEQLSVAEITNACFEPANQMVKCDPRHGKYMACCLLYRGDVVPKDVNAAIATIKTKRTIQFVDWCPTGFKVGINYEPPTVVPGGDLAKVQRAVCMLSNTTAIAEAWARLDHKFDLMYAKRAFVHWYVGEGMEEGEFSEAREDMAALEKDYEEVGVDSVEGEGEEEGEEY
compound,measurement,setting,value
"Cc1ccc(/C(CSc2nnc(-c3c[nH]c4ccccc34)n2-c2ccccc2)=N/O)cc1 [Compound 7h, (Z)-2-((5-(1H-Indol-3-yl)-4-phenyl-4H-1,2,4-triazol-3-yl)thio)-1-(p-tolyl)ethanone Oxime]",CC50,SR; [1],> 100 µM
same,TGI Conc. per Cell Lines,SR,˃100 µM
same,CC50,A549/ATCC; [1],> 100 µM
same,GI50,A549/ATCC; [2],3.55 µM
same,TGI Conc. per Cell Lines,A549/ATCC,69.70 µM
same,TGI Conc. per Cell Lines,HOP-92,37.40 µM
same,CC50,HOP-92; [1],> 100 µM
same,GI50,HOP-92; [2],11.9 µM
same,CC50,NCI-H322M; [1],> 100 µM
same,GI50,NCI-H322M; [2],3.54 µM
same,TGI Conc. per Cell Lines,NCI-H322M,19.80 µM
same,CC50,NCI-H522; [1],> 100 µM
same,GI50,NCI-H522; [2],2.24 µM
same,TGI Conc. per Cell Lines,NCI-H522,6.04 µM
same,CC50,KM12; [1],> 100 µM
same,GI50,KM12; [2],8.64 µM
same,TGI Conc. per Cell Lines,KM12,>100 µM
same,CC50,SF-295; [1],6.15 µM
same,GI50,SF-295; [2],1.64 µM
same,TGI Conc. per Cell Lines,SF-295,3.18 µM
same,CC50,SNB-75; [1],5.48 µM
same,GI50,SNB-75; [2],1.4 µM
same,TGI Conc. per Cell Lines,SNB-75,2.77 µM
same,CC50,SK-MEL-2; [1],> 100 µM
same,GI50,SK-MEL-2; [2],2.88 µM
same,TGI Conc. per Cell Lines,SK-MEL-2,8.96 µM
same,CC50,SK-MEL-28; [1],> 100 µM
same,GI50,SK-MEL-28; [2],5.67 µM
same,TGI Conc. per Cell Lines,SK-MEL-28,38.7 µM
same,CC50,SK-MEL-5; [1],> 100 µM
same,GI50,SK-MEL-5; [2],4.76 µM
same,TGI Conc. per Cell Lines,SK-MEL-5,48.1 µM
same,CC50,UACC-62; [1],6.31 µM
same,GI50,UACC-62; [2],1.69 µM
same,TGI Conc. per Cell Lines,UACC-62,3.26 µM
same,CC50,"IGROV1; Homo sapiens, IGROV-1, 48 h, read-out: LC50 (the source's name)",9.07 µM
same,GI50,"IGROV1; Homo sapiens, IGROV-1, read-out: GI50 Conc. per Cell Lines",2.09 µM
same,TGI Conc. per Cell Lines,IGROV1,4.35 µM
same,LC50,"OVCAR-5; Homo sapiens, 48 h",5.73 µM
same,GI50,OVCAR-5; [2],1.69 µM
same,TGI Conc. per Cell Lines,OVCAR-5,3.11 µM
same,TGI Conc. per Cell Lines,A498,89.10 µM
same,LC50,"A498; Homo sapiens, 48 h",> 100 µM
same,GI50,A498; [2],24.1 µM
same,LC50 (concentration killing 50% of cells),"RXF393; Homo sapiens, RXF 393, 48 h",7.65 µM
same,GI50,"RXF393; Homo sapiens, RXF 393, read-out: GI50 Conc. per Cell Lines",1.85 µM
same,TGI Conc. per Cell Lines,RXF393,3.76 µM
same,CC50,TK-10; [1],7.9 µM
same,GI50,TK-10; [2],1.9 µM
same,TGI Conc. per Cell Lines,TK-10,3.87 µM
same,CC50,UO-31; [1],9.47 µM
same,GI50,UO-31; [2],1.82 µM
same,TGI Conc. per Cell Lines,UO-31,4.15 µM
same,LC50,"MCF7; Homo sapiens, 48 h",> 100 µM
same,GI50,MCF7; [2],2.42 µM
same,TGI Conc. per Cell Lines,MCF7,7.01 µM
same,GI50,"Melanoma subpanel; Homo sapiens, average sensitivity of all cell lines of the Melanoma subpanel, read-out: GI50 Subpanel MID b",2.78 µM
same,GI50 Selectivity Ratio (MID a/MID b),Melanoma subpanel; Melanoma subpanel,1.08
same,GI50,"Ovarian cancer subpanel; Homo sapiens, average sensitivity of all cell lines of the Ovarian cancer subpanel, read-out: GI50 Subpanel MID b",2.24 µM
same,GI50 Selectivity Ratio (MID a/MID b),Ovarian cancer subpanel; Ovarian cancer subpanel,1.34
same,GI50,"Renal cancer subpanel; Homo sapiens, average sensitivity of all cell lines of the Renal cancer subpanel, read-out: GI50 Subpanel MID b",5.77 µM
same,GI50 Selectivity Ratio (MID a/MID b),Renal cancer subpanel; Renal cancer subpanel,0.52
same,%inhibition,tubulin; conc 0.01 (unit not given; IC50 from this curve in µg/ml),2.01%
same,%inhibition,tubulin; conc 0.1 (unit not given; IC50 from this curve in µg/ml),8.94%
same,%inhibition,tubulin; conc 1 (unit not given; IC50 from this curve in µg/ml),26.1%
same,%inhibition,tubulin; conc 10 (unit not given; IC50 from this curve in µg/ml),49.9%
same,%inhibition,tubulin; conc 100 (unit not given; IC50 from this curve in µg/ml),76.7%
same,IC50,tubulin; read-out: Tub. IC50±SD (converted),18.4 µM
same,IC50,"tubulin; read-out: Tubulin Inhibitory Effect, IC50",18.4 ± 0.7 µM
